The test system of one data set is EV-A71. Briefly: CPE inhibition assay (Cell Titer Glo) against EV-A71 in Vero cells. It counts as cell-based, Enterovirus A71. Conditions: for pIC50: Enterovirus A, EVA71, EV-A71, Vero cells; for Selectivity Index: CC50/IC50. (In general: ATP-based viability assays read luminescence as a measure of living cells.)
A further data set is described as follows: in vitro. Conditions: African green monkey, CC50 (μM).
Where [1] appears, read: Table 10, Scaffold 1, read-out: IC50.
The mark [2] stands for this setting: Table 8, virus-induced CPE, read-out: IC50.

pIC50: −log10 of the molar value. Where two headings read alike, the source gives them in different places. Bounds are passed on as bounds.

By pIC50 is commonly meant the negative decadic logarithm of the IC50, by convention in mol/L. As to `CC(=O)Nc1ccc(-c2nc3ccccc3[nH]2)cc1` [Compound 1, N-[4-(1H-benzimidazol-2-yl)phenyl]acetamide], in the data set on EV-A71 (setting [1]), the pIC50 is less than 4.60. Also, in the data set “in vitro”, the CC50 at 3 days is greater than 400 µM.

`O=C(Nc1ccc(-c2nc3ccccc3[nH]2)cc1)C1CC1` [Compound 2, N-[4-(1H-benzimidazol-2-yl)phenyl]cyclopropanecarboxamide]: the pIC50 in the data set on EV-A71 (setting [1]) is 4.41. Further, the “Selectivity Index” value in the data set on EV-A71 (Table 10, Scaffold 1) amounted to 3.77. This molecule yielded a CC50 at 3 days in the data set “in vitro” of 148 µM.

Regarding `CC(=O)Nc1ccc(C(=O)Nc2ccc(-c3nc4ccccc4[nH]3)cc2)cc1` [Compound 3, 4-(acetylamino)-N-[4-(1H-benzimidazol-2-yl)phenyl]benzamide], the pIC50 in the data set with EV-A71 (setting [1]) was less than 4.60. The molecule also came in with a CC50 at 3 days in “in vitro” greater than 400 µM.

`CC(=O)Oc1ccc(C(=O)Nc2ccc(-c3nc4ccccc4[nH]3)cc2)cc1` [Compound 4, 4-({[4-(1H-benzimidazol-2-yl)phenyl]amino}carbonyl)phenyl acetate]: in the data set on EV-A71 (setting [1]), the pIC50 is 4.47. In addition, the “Selectivity Index” value in the data set on EV-A71 (Table 10, Scaffold 1) worked out at 3.49. Moreover, the CC50 at 3 days in the data set “in vitro” worked out at 119 µM.

Consider `Cc1ccc2[nH]c(-c3ccc(NC(=O)CCC(=O)O)cc3)nc2c1` [Compound 5, 4-{[4-(5-methyl-1H-benzimidazol-2-yl)phenyl]amino}-4-oxobutanoic acid], for which the negative-log IC50 (pIC50) in the data set on EV-A71 (setting [1]) is less than 4.60. For the same molecule, the CC50 at 3 days in the data set “in vitro” was greater than 400 µM.

On to `O=C(Nc1ccc(-c2nc3ccccc3[nH]2)cc1)c1ccccc1` [Compound 6, N-[4-(1H-benzimidazol-2-yl)phenyl]benzamide], for which the pIC50 in the data set with EV-A71 (setting [1]) is 4.51. For the same molecule, the “Selectivity Index” value with EV-A71 (Table 10, Scaffold 1) is reported as 0.45. The same molecule displayed a CC50 at 3 days in “in vitro” of 13.7 µM.

Regarding `O=C(Cc1ccccc1)Nc1ccc(-c2nc3ccccc3[nH]2)cc1` [Compound 7, N-[4-(1H-benzimidazol-2-yl)phenyl]-2-phenylacetamide], the pIC50 with EV-A71 (setting [1]) was less than 4.60. In addition, the CC50 at 3 days in “in vitro” was greater than 400 µM.

Regarding `O=C(Nc1ccc(-c2nc3ccccc3[nH]2)cc1)c1ccccn1` [Compound 8, N-[4-(1H-benzimidazol-2-yl)phenyl]-2-pyridinecarboxamide], the pIC50 in the data set on EV-A71 (setting [2]) was 5.84. The “Selectivity Index” value is listed as 167.19 with EV-A71 (Table 8) and 167.19 in the data set on EV-A71 (Table 10, Scaffold 1). Moreover, the CC50 at 3 days in “in vitro” was determined as 244 µM.

For `O=C(Nc1ccc(-c2nc3ccccc3[nH]2)cc1)c1cccs1` [Compound 10, N-[4-(1H-benzimidazol-2-yl)phenyl]-2-thiophenecarboxamide], the pIC50 in the data set on EV-A71 (setting [2]) is 5.30. Further, the “Selectivity Index” value with EV-A71 (Table 8) is 42.06; with EV-A71 (Table 10, Scaffold 1) it was 42.06. In “in vitro”, the CC50 at 3 days was 210 µM.

In the case of `O=C(Nc1ccc(-c2nc3ccccc3[nH]2)cc1)c1ccc(Br)o1` [Compound 11, N-[4-(1H-benzimidazol-2-yl)phenyl]-5-bromo-2-furamide], the pIC50 with EV-A71 (setting [1]) is 3.60. The “Selectivity Index” value in the data set on EV-A71 (Table 10, Scaffold 1) is given as 6.54. The same molecule came in with a CC50 at 3 days in the data set “in vitro” of 1650 µM.

For the molecule `O=C(Nc1ccc(-c2nc3ccccc3[nH]2)cc1)c1ccccc1F` [Compound 13, N-[4-(1H-benzimidazol-2-yl)phenyl]-2-fluorobenzamide], in the data set on EV-A71 (setting [1]), the pIC50 is less than 4.60. Moreover, the CC50 at 3 days in the data set “in vitro” stood at 98.1 µM.

Turning to `O=C(Nc1ccc(-c2nc3ccccc3[nH]2)cc1)c1ccc(F)cc1` [Compound 14, N-[4-(1H-benzimidazol-2-yl)phenyl]-4-fluorobenzamide], in the data set with EV-A71 (setting [1]), the pIC50 is less than 4.60. Besides, the CC50 at 3 days in “in vitro” amounted to 133 µM.

On to `O=C(Nc1ccc(-c2nc3ccccc3[nH]2)cc1)c1cccc(F)c1` [Compound 15, N-[4-(1H-benzimidazol-2-yl)phenyl]-3-fluorobenzamide], for which the pIC50 in the data set with EV-A71 (setting [1]) was less than 4.60. This molecule also returned a CC50 at 3 days in “in vitro” of 29.2 µM.

Turning to `O=C(Nc1ccc(-c2nc3ccccc3[nH]2)cc1)C1CCCC1` [Compound 17, N-[4-(1H-benzimidazol-2-yl)phenyl]cyclopentanecarboxamide], the pIC50 in the data set on EV-A71 (setting [1]) was 4.87. The “Selectivity Index” value in the data set with EV-A71 (Table 10, Scaffold 1) came out at 19.91. The molecule also came in with a CC50 at 3 days in the data set “in vitro” of 266 µM.

Regarding `O=C(Nc1ccc(-c2nc3ccccc3[nH]2)cc1)c1ccc(N2CCOCC2)c([N+](=O)[O-])c1` [Compound 18, N-[4-(1H-benzimidazol-2-yl)phenyl]-4-(4-morpholinyl)-3-nitrobenzamide], the pIC50 in the data set on EV-A71 (setting [1]) was less than 4.60. In addition, the CC50 at 3 days in “in vitro” is 11.1 µM.

For `O=C(Nc1ccc(-c2nc3ccccc3[nH]2)cc1)c1cc([N+](=O)[O-])ccc1N1CCOCC1` [Compound 19, N-[4-(1H-benzimidazol-2-yl)phenyl]-2-(4-morpholinyl)-5-nitrobenzamide], the pIC50 in the data set with EV-A71 (setting [1]) is 5.14. For the same molecule, in the data set on EV-A71 (Table 10, Scaffold 1), the “Selectivity Index” value stood at 287.50. Besides, the CC50 at 3 days in the data set “in vitro” came out at 2090 µM.

Take `O=C(CSCc1ccc([N+](=O)[O-])cc1)Nc1ccc(-c2nc3ccccc3[nH]2)cc1` [Compound 21, N-[4-(1H-benzimidazol-2-yl)phenyl]-2-[(4-nitrobenzyl)thio]acetamide]: in the data set with EV-A71 (setting [1]), the negative-log IC50 (pIC50) was less than 4.60. The molecule further showed a CC50 at 3 days in the data set “in vitro” greater than 400 µM.

In the case of `O=C(Nc1ccc(-c2nc3ccccc3[nH]2)cc1)c1ccc(-c2cccc([N+](=O)[O-])c2)o1` [Compound 23, N-[4-(1H-benzimidazol-2-yl)phenyl]-5-(3-nitrophenyl)-2-furamide], in the data set on EV-A71 (setting [1]), the pIC50 is less than 4.60. Besides, in the data set “in vitro”, the CC50 at 3 days turned out to be 1.14 µM.

For `O=C(Cc1cccc2ccccc12)Nc1ccc(-c2nc3ccccc3[nH]2)cc1` [Compound 24, N-[4-(1H-benzimidazol-2-yl)phenyl]-2-(1-naphthyl)acetamide], in the data set with EV-A71 (setting [1]), the pIC50 is 5.08. Besides, the “Selectivity Index” value in the data set on EV-A71 (Table 10, Scaffold 1) was 7.05. In the data set “in vitro”, this molecule yielded a CC50 at 3 days of 58.8 µM.

On to `O=C(Nc1ccc(-c2nc3ccccc3[nH]2)cc1)c1ccc(-c2ccc(Cl)cc2)o1` [Compound 26, N-[4-(1H-benzimidazol-2-yl)phenyl]-5-(4-chlorophenyl)-2-furamide], for which, in the data set on EV-A71 (setting [1]), the pIC50 was 5.24. Also, the “Selectivity Index” value in the data set with EV-A71 (Table 10, Scaffold 1) was found to be 7.77. The same molecule showed a CC50 at 3 days in “in vitro” of 44.3 µM.

Regarding `O=C(Nc1ccc(-c2nc3ccccc3[nH]2)cc1)c1ccc(-c2cccc(Cl)c2)o1` [Compound 27, N-[4-(1H-benzimidazol-2-yl)phenyl]-5-(3-chlorophenyl)-2-furamide], in the data set with EV-A71 (setting [1]), the pIC50 is 5.23. Moreover, the “Selectivity Index” value in the data set with EV-A71 (Table 10, Scaffold 1) is on record as 11.56. In the data set “in vitro”, this molecule had a CC50 at 3 days of 67.6 µM.

As for `CC(=O)Nc1ccc(-c2nc3cc(C)ccc3[nH]2)cc1` [Compound 29, N-[4-(5-methyl-1H-benzimidazol-2-yl)phenyl]acetamide], the pIC50 in the data set on EV-A71 (setting [1]) is 4.16. In addition, in the data set with EV-A71 (Table 10, Scaffold 1), the “Selectivity Index” value is recorded as greater than 5.77. The molecule also showed a CC50 at 3 days in the data set “in vitro” greater than 400 µM.

As to `CC(=O)Nc1ccc(-c2nc3ccc(Cl)cc3[nH]2)cc1` [Compound 30, N-[4-(6-chloro-1H-benzimidazol-2-yl)phenyl]acetamide], the pIC50 in the data set with EV-A71 (setting [1]) is less than 4.60. In “in vitro”, this molecule gave a CC50 at 3 days greater than 400 µM.

Regarding `Cc1ccc2[nH]c(-c3ccc(NC(=O)C4CC4)cc3)nc2c1` [Compound 31, N-[4-(5-methyl-1H-benzimidazol-2-yl)phenyl]cyclopropanecarboxamide], the pIC50 in the data set on EV-A71 (setting [1]) is 5.02. Besides, the “Selectivity Index” value with EV-A71 (Table 10, Scaffold 1) is listed as greater than 41.67. Further, the CC50 at 3 days in the data set “in vitro” was greater than 400 µM.

With `CCC(=O)Nc1ccc(-c2nc3ccc(Cl)cc3[nH]2)cc1` [Compound 32, N-[4-(6-chloro-1H-benzimidazol-2-yl)phenyl]propanamide], in the data set with EV-A71 (setting [1]), the pIC50 was less than 4.60. Besides, the CC50 at 3 days in the data set “in vitro” is greater than 400 µM.

As to `Cc1ccc2[nH]c(-c3ccc(NC(=O)C(C)C)cc3)nc2c1` [Compound 33, 2-methyl-N-[4-(5-methyl-1H-benzimidazol-2-yl)phenyl]propanamide], the pIC50 in the data set with EV-A71 (setting [1]) is 4.93. The “Selectivity Index” value in the data set with EV-A71 (Table 10, Scaffold 1) was found to be 39.46. Also, the CC50 at 3 days in the data set “in vitro” worked out at 468 µM.

With `Cc1ccc2[nH]c(-c3ccc(NC(=O)C(F)(F)F)cc3)nc2c1` [Compound 34, 2,2,2-trifluoro-N-[4-(5-methyl-1H-benzimidazol-2-yl)phenyl]acetamide], the negative-log IC50 (pIC50) in the data set on EV-A71 (setting [1]) was less than 4.60. Besides, the CC50 at 3 days in “in vitro” came out at 618 µM.

For the molecule `Cc1ccc2[nH]c(-c3ccc(NC(=O)COc4ccccc4)cc3)nc2c1` [Compound 38, N-[4-(5-methyl-1H-benzimidazol-2-yl)phenyl]-2-phenoxyacetamide], in the data set on EV-A71 (setting [1]), the pIC50 is less than 4.60. In “in vitro”, this molecule yielded a CC50 at 3 days greater than 400 µM.

Turning to `Cc1ccc2[nH]c(-c3ccc(NC(=O)Cc4ccccc4)cc3)nc2c1` [Compound 39, N-[4-(5-methyl-1H-benzimidazol-2-yl)phenyl]-2-phenylacetamide], the negative logarithm of the IC50 (pIC50) in the data set with EV-A71 (setting [1]) was less than 4.60. In “in vitro”, the CC50 at 3 days was greater than 400 µM.

`Cc1ccc(OCC(=O)Nc2ccc(-c3nc4cc(C)ccc4[nH]3)cc2)cc1` [Compound 41, N-[4-(5-methyl-1H-benzimidazol-2-yl)phenyl]-2-(4-methylphenoxy)acetamide]: the negative-log IC50 (pIC50) with EV-A71 (setting [1]) is less than 4.60. In the data set “in vitro”, this molecule came in with a CC50 at 3 days greater than 400 µM.

As to `O=C(c1ccccc1)c1ccc2[nH]c(-c3ccc(NC(=O)c4ccco4)cc3)nc2c1` [Compound 45, N-[4-(5-benzoyl-1H-benzimidazol-2-yl)phenyl]-2-furamide], the pIC50 in the data set with EV-A71 (setting [2]) was 5.33. The “Selectivity Index” value with EV-A71 (Table 8) was found to be 12.56; in the data set on EV-A71 (Table 10, Scaffold 1), 12.56. In the data set “in vitro”, this molecule yielded a CC50 at 3 days of 59.1 µM.

As for `CC(=O)Nc1ccc(-c2nc3cc4ccccc4cc3[nH]2)cc1` [Compound 47, N-[4-(1H-naphtho[2,3-d]imidazol-2-yl)phenyl]acetamide], in the data set with EV-A71 (setting [2]), the pIC50 was 5.37. Also, the “Selectivity Index” value in the data set on EV-A71 (Table 8) is 113.08; in the data set on EV-A71 (Table 11, Scaffold 2) it was 113.08. In addition, the CC50 at 3 days in “in vitro” was 477 µM.

For the molecule `O=C(CCc1ccccc1)Nc1ccc(-c2nc3cc4ccccc4cc3[nH]2)cc1` [Compound 49, N-[4-(1H-naphtho[2,3-d]imidazol-2-yl)phenyl]-3-phenylpropanamide], in the data set with EV-A71 (Table 11, Scaffold 2, read-out: IC50), the pIC50 was 4.66. The “Selectivity Index” value in the data set with EV-A71 (Table 11, Scaffold 2) was determined as 6.99. Besides, the CC50 at 3 days in “in vitro” amounted to 154 µM.

As to `CCCCOc1cc(C(=O)NCCN(CC)CC)c2ccccc2n1` [Dibucaine, reference compound], in the data set on EV-A71 (read-out: IC50 for inhibition of virus-induced CPE), the pIC50 was 5.35.

The values above are taken from patent US20240131007A1, “METHODS AND COMPOSITIONS FOR PICORNAVIRUS ANTI-VIRAL AGENTS” (University of Connecticut, priority 2022, published 2024).
